According to ChEMBL document CHEMBL4616699, “Characterization of Specific N-α-Acetyltransferase 50 (Naa50) Inhibitors Identified Using a DNA Encoded Library” (ACS Med Chem Lett, 2020):

Key:
[1] = molecular target: T1, N-alpha-acetyltransferase 50 (Homo sapiens, UniProt Q9GZZ1); assay: Binding affinity to full length human N-terminal His-tagged/GST-tagged Naa50 expressed in Escherichia coli BL21(DE3) cells in by SPR analysis
T1 sequence (Q9GZZ1 whole entry): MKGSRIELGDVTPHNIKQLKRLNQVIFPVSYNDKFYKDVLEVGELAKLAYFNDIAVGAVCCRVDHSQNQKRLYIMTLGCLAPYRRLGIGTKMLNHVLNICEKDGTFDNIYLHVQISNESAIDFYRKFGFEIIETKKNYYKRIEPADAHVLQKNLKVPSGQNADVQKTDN

[2] = molecular target: T2, N-alpha-acetyltransferase 50 (Homo sapiens) (UniProt Q9GZZ1)
T2 sequence (whole entry): T1 sequence (Q9GZZ1 whole entry)
Description: Binding affinity to full length human N-terminal His-tagged/GST-tagged Naa50 expressed in Escherichia coli BL21(DE3) cells assessed as half life for dissociation by SPR analysis

[3] = Dissociation constant, pKa of compound; format: physicochemical

Compound: CC(C)(COP(=O)(O)OP(=O)(O)OC[C@H]1O[C@@H](n2cnc3c(N)ncnc32)[C@H](O)[C@@H]1OP(=O)(O)O)[C@@H](O)C(=O)NCCC(=O)NCCS [COENZYME_A]
- Kd [1]: 0.156 µM
- T1/2 [2]: 0.4 min

Compound: Cc1csc([C@@H]2C[C@H](NC(=O)[C@@H]3CC(=O)N(C)C(=O)N3)CN2C(=O)c2ccc(C(=O)O)cc2)n1
- pKa [3]: 3.6

Compound: CNC(=O)c1csc([C@@H]2C[C@H](NC(=O)[C@@H]3CC(=O)N(C)C(=O)N3)CN2C(=O)c2ccc(-c3nn[nH]n3)cc2)n1
- pKa [3]: 4

Compound: CC(=O)SCCNC(=O)CCNC(=O)[C@H](O)C(C)(C)COP(=O)(O)OP(=O)(O)OC[C@H]1O[C@@H](n2cnc3c(N)ncnc32)[C@H](O)[C@@H]1OP(=O)(O)O
- Kd [1]: 0.0176 µM
- T1/2 [2]: 4 min

Compound: Cc1csc([C@@H]2C[C@H](NC(=O)[C@@H]3CC(=O)N(C)C(=O)N3)CN2C(=O)c2ccc(-c3nnc[nH]3)cc2)n1
- pKa [3]: 8.9

Compound: Cc1csc([C@@H]2C[C@H](NC(=O)[C@@H]3CC(=O)N(C)C(=O)N3)CN2C(=O)c2ccc(-c3nn[nH]n3)cc2)n1
- pKa [3]: 3.7
